Patent US10377800B2, “Myelin oligodendrocyte glycoprotein (MOG) peptide” (APITOPE TECHNOLOGY (BRISTOL) LIMITED, priority 2013, dated 2019)

Tests used:
[1] = tested on: MOG-specific hybridoma T cell clones; experiment: Antigen processing independent presentation: peptides presented by live or p-formaldehyde fixed Mgar cells to T cell hybridoma clones, IL-2 production; assay type: cell-based, mice; conditions: FIG. 1; for identification as apitope: detailed study, overlapping peptides in region 25-60 displaced by one amino acid
Description: A panel of 15-mer overlapping peptides spanning rhMOGED was synthesized using standard F-moc chemistry. […]
MOG-specific hybridoma T cell clones were generated by immunisation of DR2+ mice. DR2+ mice were immunised with either a pool of MOG overlapping peptides or rhMOGED in complete Freunds adjuvant (CFA). After 10 days, the spleen and draining lymph nodes were removed, CD4+ T cells were purified and restimulated with antigen/CFA in vitro. A week later, T cells were restimulated in vitro with antigen to increase the number of activated antigen-specific cells.
After 3 days, activated T cells were fused with the thymoma cell line BW 5147. Hybridoma clones were then selected using HAT selection medium and screened for peptide specificity by IL-2 ELISA.
Live or p-formaldehyde fixed Mgar (HLA-DR2+ve) cells were incubated with peptides in serum or in serum alone, together with T cells for 48 hours. The T cell proliferative response was measured by IL-2 production.

[2] = administered in solution; Anderton and Wraith (1998); cited from earlier work
I-A^S = target: T1, I-A^S (Mus musculus, UniProt P06345+P14437); conditions: cited from earlier work
T1 sequence (P14437 1-233): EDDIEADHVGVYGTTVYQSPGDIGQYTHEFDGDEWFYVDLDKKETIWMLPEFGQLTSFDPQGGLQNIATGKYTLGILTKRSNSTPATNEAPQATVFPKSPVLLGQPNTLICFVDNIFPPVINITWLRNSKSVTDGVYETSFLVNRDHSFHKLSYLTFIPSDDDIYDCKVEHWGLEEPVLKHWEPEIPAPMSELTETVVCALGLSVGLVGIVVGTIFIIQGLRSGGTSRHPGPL
T1 sequence (P06345 28-263): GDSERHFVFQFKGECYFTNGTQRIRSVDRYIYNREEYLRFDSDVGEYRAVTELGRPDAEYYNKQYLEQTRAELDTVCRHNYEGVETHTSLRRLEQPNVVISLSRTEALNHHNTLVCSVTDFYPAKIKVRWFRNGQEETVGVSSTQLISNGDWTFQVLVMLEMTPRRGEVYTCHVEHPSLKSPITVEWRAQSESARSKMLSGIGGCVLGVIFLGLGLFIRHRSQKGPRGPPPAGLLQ

DR2 transgenic mice = experiment: MOG-induced EAE model; assay type: in vivo; conditions: for Incidence (EAE) / Mean day of onset (EAE): Pertussis toxin day 0 and 2
Protocol: (§1) To test the capacity of ROK5 to prevent MOG-induced EAE in HLA-DR2 transgenic mice, the disease model was established in this strain of mice. To induce the disease, the encephalitogenic MOG peptide, mouse MOG 35-55 (mMOG35-55) was used. Then, ROK5 was tested in EAE prevention experiments as follows:
Two groups of DR2 transgenic mice were setup, at day zero, animals (n=7) in group “100 μg” received 100 μg mMOG35-55 in Complete Freund's Adjuvant (CFA) (100 μl, s.c., base of the tail injection), animals (n=8) in group “200 μg” received 200 μg mMOG35-55 in CFA. At day zero and day2, all animals received an injection of Pertussis toxin (200 ng in PBS, i.p.). Every day, clinical EAE was scored and animal body weight measured.

splenocytes = experiment: Cytokine profiles of splenocyte supernatants after in vivo ROK5 pre-treatment, MOG35-55 immunisation and in vitro recall; set-up: species or system mice; conditions: ROK5 pretreatment vs PBS; FIG. 3
Protocol: (§2) HLA-DR2 transgenic mice were immunised with either 100 μg ROK5 (MOG 41-55), 100 μg MOG 35-55 or PBS on days −8, −4 and −2. On day 0, mice were challenged with 100 μg MOG 35-55 by injection in the tail base in combination with CFA.
The effect of ROK5 pre-treatment on various cytokine profiles was also investigated.

HLA-DR2 transgenic mice [3] = experiment: ROK5 EAE prevention, first experiment (3 pre-treatments); assay type: in vivo; conditions: pretreated 3 times, FIG. 6; for severity of the disease induced by MOG (clinical EAE score): 3 days apart, 100 μg s.c. flank, EAE by 200 μg mMOG35-55
Protocol: as §1
Experiment 1: with 3 ROK5 dose pre-treatments, followed by immunisation with mMOG35-55.
(§3) In each experiment, 10 mice were used per group.
(§4) A first experiment was performed where animals were pretreated 3 times (3 days apart) with either mouse ROK5, human ROK5 or PBS, 100 μg in 100 μl in CFA (s.c. injection in the flank), then all animals were immunised with 200 μg mMOG35-55 in CFA (s.c. injection at the base of the tail) and with 200 ng Pertussis toxin (200 ng in PBS, i.p.) at day zero and day 2.
Every day, clinical EAE was scored and animal body weight measured.

HLA-DR2 transgenic mice [4] = experiment: Ex vivo tolerance assay: recall proliferation with MOG 35-55 after peptide pre-treatment and MOG 35-55/CFA challenge; conditions: 100 μg on days -8, -4 and -2; challenge 100 μg MOG 35-55 in CFA day 0; harvest day 10; FIG. 2
Protocol: as §2
On day 10, splenocytes and draining lymph nodes were harvested and their respective cell populations isolated and a recall proliferation assay was set up with MOG 35-55. Cells from individual mice were treated separately and data is plotted separately in FIG. 2. For the recall response cells were treated ex vivo with a dose range of MOG35-55 (100, 10, 1, 0.1, 0.01, 0 μg) and proliferation via ^3H-thymidine incorporation determined. Stimulation index (compared to proliferation with no antigen) was calculated for each condition.

HLA-DR2 transgenic mice [5] = experiment: ROK5 EAE prevention, second experiment (5 pre-treatments); assay type: in vivo; conditions: pretreated 5 times, 3 days apart, 100 μg s.c. flank; EAE by 200 μg mMOG35-55; FIG. 7
Protocol: as §1
Experiment 2: with 5 ROK5 dose pre-treatments, followed by immunisation with mMOG35-55.
as §3
as §4, with “A second” for “A first”, “pretreated 5” for “pretreated 3”, “either” for “either mouse ROK5,”, “2. Every day, clinical EAE was scored.” for “2.”

[6] = 100 μg mMOG35-55 in CFA s.c. base of tail, n=7
[7] = 200 μg mMOG35-55 in CFA s.c. base of tail, n=8

FSRVVHLYRNGKDQD (listed as Homo sapiens) [MOG 44-58, MOG peptide 44-58, apitope]
identification as apitope [1]: identified as apitopes

MBP [89-101]: myelin basic protein peptide 89-101, immunodominant antigen, not tolerogenic (PHLIRLFSRDAPG; UniProt P04370 89-101, looked up, fragment)
induction of tolerance [2]: ineffective at inducing tolerance | affinity of binding to I-A^S (I-A^S): relatively high affinity

MEVGWYRSPFSRVVHLYRNGK (listed as Mus musculus) [mMOG35-55, encephalitogenic MOG peptide used to induce EAE]
Incidence (EAE) (DR2 transgenic mice; [6]): 4/7 | Mean day of onset (EAE) (DR2 transgenic mice; [6]): 12.25 days | Incidence (EAE) (DR2 transgenic mice; [7]): 7/8 | Mean day of onset (EAE) (DR2 transgenic mice; [7]): 12 days | induction of EAE (DR2 transgenic mice; both doses (100 μg and 200 μg), FIGS. 5A, 5B): can induce EAE with a good incidence

PFSRVVHLYRNGKDQ (listed as Homo sapiens) [MOG 43-57, MOG peptide 43-57, apitope]
identification as apitope [1]: identified as apitopes

RPPFSRVVHLYRNGK (listed as Homo sapiens) [ROK5, human MOG peptide 41-55, apitope]
presentation by fixed APC to T cells without further processing (apitope) ([1]; 15-mer peptides displaced by 5aa, fixed APC): could be presented by fixed APC to T cells without further processing | identification as apitope [1]: identified as apitopes | production of GM-CSF by splenocytes (splenocytes): clearly affected | production of IFNγ by splenocytes (splenocytes): clearly affected | production of IL6 by splenocytes (splenocytes): clearly affected | production of IL-2 by splenocytes (splenocytes): clearly affected | efficiency of human ROK5 compared with mouse ROK5 in reducing EAE severity (HLA-DR2 transgenic mice [3]; 100 μg): more efficient | severity of the disease induced by MOG (clinical EAE score) (HLA-DR2 transgenic mice [3]): can reduce the severity of the disease | immune response to challenge with MOG 35-55 (recall proliferation, stimulation index) (HLA-DR2 transgenic mice [4]): able to suppress the immune response | peak of disease burden (timing) (HLA-DR2 transgenic mice [5]): caused a delay in the peak of disease burden | severity of disease (clinical EAE score) (HLA-DR2 transgenic mice [5]): reduced the severity of disease

RSPFSRVVHLYRNGK (listed as Mus musculus) [mouse ROK5, mouse MOG 41-55, serine in position 42]
severity of the disease induced by MOG (clinical EAE score) (HLA-DR2 transgenic mice [3]): can reduce the severity of the disease

SRVVHLYRNGKDQDG (listed as Homo sapiens) [MOG 45-59, MOG peptide 45-59, apitope]
identification as apitope [1]: identified as apitopes
